Tested on: fetal dopaminergic neurons in culture
Experiment: Neuroprotection and differentiation of dopaminergic (TH+) neurons in primary culture of rat embryo mesencephalon (spontaneous degeneration model)
Type: cell-based
Design: key to Diff (qualitative assessment of neuron differentiation): + indicates that the neurons have a morphology similar to that of the control; ++ and +++ indicate the presence of neurons whose extensions are longer and more numerous than the control neurons; ++ and +++ indicate the presence of neurons whose extensions are longer and more numerous than the control neurons; − indicates that the neurons have neurites that are shorter and less numerous than the control neurons
Conditions: for Diff (qualitative assessment of neuron differentiation): dopaminergic neurons in culture; for viability at 0.1 µM: Rattus norvegicus, Neuron, 192 h, read-out: % Neurons relative to the control ±SEM
Method: Dissection consists in extracting the embryos from the uterus of a rat at fifteen days of gestation. The brain of each embryo is then dissected under a binocular magnifier in order to extract the ventral mesencephalon.
The mesencephalons are gathered in a flask containing 2 ml of L15 medium and then mechanically dissociated (30 times), and then 5 ml of L15 medium are added. The suspension is left to rest for 8 minutes. 5 ml of the supernatant are recovered in a new flask and the cells are dissociated again (30 times). 5 ml of L15 are again added and the suspension is left to rest for 8 minutes. 5 ml of supernatant are added to the preceding. The cells thus extracted are then centrifuged for 5 minutes at 1,000 rpm. The cell pellet is taken up in Neurobasal medium supplemented with 1% B27, 1% glutamine and 1% penicillin/streptomycin mixture. The cells are then inoculated at the appropriate dilution (0.6 embryo per well on a 24-well plate and 0.4 per well on a 48-well plate). The cultures are incubated at 37° C. in a humid atmosphere enriched with 5% CO2 in a 24- or 48-well plate.
After 24 hours, two-thirds of the medium of each well is replaced by new medium enriched with the compound of the invention to test at the appropriate dilution. The medium is replaced in the same way after 4 days of culture.
At 8 days of culture, the cells are fixed by a 4% formaldehyde solution and then washed three times with PBS. The cells then undergo several immunohistochemistry procedures: • anti-tyrosine hydroxylase (TH) visualized by a secondary antibody coupled to a fluorochrome that emits in the red spectrum (Cy3). • anti-MAP2 (MAP=microtubule-associated protein) (neuron marker) visualized by a secondary antibody coupled to a fluorochrome that emits in the green spectrum (alexa488). • DAPI (4′,6-diamidino-2-phenylindole), a nuclear marker that emits in the blue spectrum.
Neuroprotection is evaluated by counting TH positive neurons directly under the microscope or MAP2 positive on images, at 15 images per well, expressed as a percentage of the untreated control. The experiments include three wells per condition. Three independent experiments are carried out under these conditions. Total neurite length per cell calculated by the Neurite Outgrowth software by Explora Nova on 20 neurons photographed independently per well gives an indication of the state of maturation of the dopaminergic neurons.
The compounds of the invention were tested on a model of spontaneous degeneration of dopaminergic neurons in culture.
This model consists of culturing cells of the ventral mesencephalon of rat embryo. This part of the brain in culture contains dopaminergic neurons and other primarily GABAergic neurons. These cultures are also composed of glial cells, namely astrocytes, oligodendrocytes and microglia. This is a model of spontaneous degeneration of dopaminergic neurons which mimics certain aspects of Parkinson's disease.
The neuroprotective effect of the compounds of the invention was evaluated by counting dopaminergic neurons (TH^+) marked by tyrosine hydroxylase (TH) immunohistochemistry after 8 days of culture. Thus the compounds were evaluated at 1 nM, 10 nM, 100 nM and 1 μM and were compared with the activity of dibutyryl cyclic AMP (db-cAMP) used as the reference product.
In order to evaluate more quantitatively the activity of the compounds of the invention, neurite growth per cell was measured using the Neurite Outgrowth software developed by Explora Nova. A minimum of 60 neurons per condition were photographed and studied, and the results were then averaged and normalized by the number of neurons considered.

[1] = 100 nM, survival of TH+ dopaminergic neurons after 8 days of culture

SMILES | Diff (qualitative assessment of neuron differentiation) (100 nM) | viability at 0.1 µM [1] | neuroprotective activity (percentage of survival of dopaminergic neurons), in words, versus reference product db-cAMP (dopaminergic neurons, 8 days of culture) | dose-response of effect on survival of dopaminergic neurons (1 nM, 10 nM, 100 nM and 1 μM, FIG. 2) | % Neurons relative to the control ±SEM [1]
CCCCCCCCCCCCCCC(=O)Nc1ccc2nccnc2c1 [Compound F1, Nr-(quinoxalin-6-yl)pentadecanamide] | +++ | 125 ± 5.5% |  |  | 
CCCCCCCCCCCCCCC(=O)Nc1ccc2nc(C)cnc2c1 [Compound F2, N-(2-methylquinoxalin-6-yl)pentadecanamide] | +++ | 120 ± 3.1% |  |  | 
CCCCCCCCCCCCCCC(=O)Nc1ccc2ncc(CCCC)nc2c1 [Compound F3, N-(3-butylquinoxalin-6-yl)pentadecanamide] | ++ | 114 ± 3.8% |  |  | 
CCCCCCCCCCCCCCC(=O)Nc1ccc2nc(CCCCCC)c(CCCC)nc2c1 [Compound F4, N-(2-hexyl-3-butylquinoxalin-6-yl)pentadecanamide] | ++ | 101 ± 2.2% |  |  | 
CCCCCCCCCCCCCCCNc1ccc2nccnc2c1 [Compound G1, N-(quinoxalin-6-yl)pentadecanamine] | +++ | 131 ± 10.9% |  |  | 
CCCCCCCCCCCCCCCNc1ccc2nc(C)cnc2c1 [Compound G2, N-(2-methylquinoxalin-6-yl)pentadecanamine] | +++ | 135 ± 4.4% |  |  | 
CCCCCCCCCCCCCCCNc1ccc2ncc(CCCC)nc2c1 [Compound G3, N-(3-butylquinoxalin-6-yl)pentadecanamine] | ++ | 113 ± 7% |  |  | 
CCCCCCCCCCCCCCCNc1ccc2nc(CCCCCC)c(CCCC)nc2c1 [Compound G4, N-(2-hexyl-3-butylquinoxalin-6-yl)pentadecanamine] | ++ | 111 ± 5.3% |  |  | 
OCCCCCCCCCCCCCCCNc1ccc2nccnc2c1 [Compound G5, 15-hydroxy-N-(quinoxalin-6-yl)pentadecylamine] | ++ | 130 ± 7% |  |  | 
OCCCCCCCCCCCC#Cc1ccc2ccccc2n1 [Compound K2, 13-(quinolin-2-yl)tridec-12-yn-1-ol] | ++ | 121 ± 3.1% |  |  | 
C#CC(O)CCCCCCCCCCCCCCc1ccc2ccccc2n1 (stereo not drawn) [Compound N′3, 17-(quinolin-2-yl)heptadec-1-yn-3-ol] |  |  | equal to or greater than that of the reference product |  | 
C#CC(O)CCC#Cc1cnc2ccccc2c1 (stereo not drawn) [Compound Z1, reference compound] | − | 98.2 ± 6.3% |  | zero at all the concentrations tested | 
C#CC(O)CCCCc1cnc2ccccc2c1 (stereo not drawn) [Compound Z2, reference compound] | + | 118 ± 6.1% |  |  | 
CCCCC#Cc1cnc2ccccc2c1 [Compound Z3, reference compound] | − | 104 ± 4.2% |  |  | 
CCCC(=O)Nc1ncnc2c1ncn2[C@@H]1O[C@@H]2COP(=O)(O)O[C@H]2[C@H]1OC(=O)CCC [db-cAMP, dibutyryl cyclic AMP, reference compound] | +++ |  |  |  | 149.9 ± 3.6%
